Results on five substances are retold here after US20100074920A1 (priority 2006, published 2010).

In test [1] the test system is serum antibodies of test subjects Serum 1B-8B. Particulars: sera S1B-S8B; streptavidin immobilized peptide.
Test [2] deals with serum antibodies of test subjects 1-6. Particulars: N-terminal conjugate on a streptavidin plate; sera 1-6.
Test [3] has the same test system. The experiment in a line: ELISA on maleimide-activated plates (Cys-immobilized peptides). Format: binding, human. Particulars: Cys-conjugate on maleimide plate; sera 1-6. As for the experimental part:
Peptides containing cysteine were bound through the cysteine sulfhydryl group to maleimide activated plates (Reacti-Bind™ Maleimide activated plates, Pierce). The peptides sequences were as follows:
One hundred microliters of the peptide solution (0.5 nmol of peptide) was added to each well and allowed to react overnight at +4° C.
The unreacted maleimide groups were blocked with 2-mercaptoethanol: 150 μl of 1 mM 2-mercaptoethanol in 10 mM sodium phosphate/0.15 M NaCl/2 mM EDTA, pH 7.2 was added to each well and allowed to react for 1 hour at RT.
The serum obtained from person nr. […] Control wells contained no peptide but both 2-mercaptoethanol and BSA blockings were employed. All incubations were performed in duplicates.

Test [4] relates to commercial polyclonal antibody from rabbit. The experiment in a line: ELISA control, peptide coated on maleimide plate. Particulars: peptide coated on a maleimide plate; negligible binding without the peptide. The text has this: A commercial peptide […] (HM11-peptide), which has been used as a recognition tag on recombinant proteins was used as a control and for testing of analysis of binding between a free core peptide and human antibodies. Due to restricted availability of at least N-terminal sequence the peptide would not be very effective in immunization against the viral as therapy. This peptide is known to be antigenic in animals under immunization conditions and antibodies including polyclonals from rabbit, mice etc.

Where two headings read alike, the source gives them in different places.

As to “Biotin-aminocaproyl-CRPWVRGVC [Peptide 4B]”, the “binding of serum antibodies (immune response), absorbance at 450 nm” value in test [1] is given as “bind generally more strongly antibodies than the corresponding linear peptide 3”.
Biotin-aminohexanoyl-PWVRGV [Peptide 3]: in test [2], the “immune response of the 6 sera, order of reactivity” value is “distinct pattern of immune recognition”.
As for Biotin-aminohexanoyl-SYACKR [Peptide 2], the “immune response of the 6 sera, order of reactivity” value was “sera 2 and 5 showed strongest immune response before sera 3,4 and 6, while serum 1 showed weakest reaction” in test [2]; “reacted with sera similarly but reactions with serum 5 was weaker and the serum 6 showed the strongest response” in test [3].
Turning to “Biotin-aminocaproyl-CRPKVRDQC [Peptide 3B]”, the “binding of serum antibodies (immune response), absorbance at 450 nm” value in test [1] was “unusually high response, especially with a person S5B”.
Regarding “CYPYDVPDYA [HA11, commercial peptide used as a recognition tag on recombinant proteins; control and core peptide]”, the “binding of commercial polyclonal antibody from rabbit to the peptide” value in test [4] is “effective binding”.
